Measured values: ChEMBL document CHEMBL5154791, “Optimization of a Pyrimidinone Series for Selective Inhibition of Ca2+/Calmodulin-Stimulated Adenylyl Cyclase 1 Activity for the Treatment of Chronic Pain” (J Med Chem, 2022)
In brackets after ≈: the same amount, converted by molar mass. Activity calls are given as the source filed them. The calls are words filed in the database; no cut-off is given here.

What was measured:
[1] = tested on: Mus musculus; experiment: Antiallodynic activity against CFA-induced C57BL/6N mouse inflammatory pain model assessed as inhibition of inflammatory mechanical allodynia at 5.6 mg/kg, ip measured over 2 hrs post treatment by von Frey test; type: functional, organism-based
[2] = biological target: T1, Adenylate cyclase type 8 (Homo sapiens, UniProt P40145); experiment: Inhibition of Ca2+/ CAM stimulated human AC8 activity expressed in AC3 and AC6-knockout HEK293 cells assessed as A23187 stimulated cAMP accumulation incubated for 30 mins followed by […] in presence of IBMX for 1 hr by HTRF assay relative to control; type: cell-based; design: concentration or dose not given beside the values; conditions: time 90.0 min
[3] = biological target: T1, Adenylate cyclase type 8; experiment: Inhibition of Ca2+/ CAM stimulated human AC8 activity expressed in AC3 and AC6-knockout HEK293 cells assessed as A23187 stimulated cAMP accumulation incubated for 30 mins followed by […] in presence of IBMX for 1 hr by HTRF assay; type: cell-based
[4] = biological target: Adenylate cyclase type 1 (Homo sapiens, UniProt Q08828)
Description: Inhibition of Ca2+/ CAM stimulated human AC1 activity expressed in AC3 and AC6-knockout HEK293 cells assessed as A23187 stimulated cAMP accumulation incubated for 30 mins followed by A2318 stimulation in presence of IBMX for 1 hr by HTRF assay

[5] = biological target: Insulin receptor (Homo sapiens) (UniProt P06213); experiment: Inhibition of human recombinant IRK assessed as inhibition of phosphorylation activity at 10 uM using 33P-labeleled peptide substrate by radiometric scintillation counting assay relative to control
[6] = Thermodynamic solubility of the compound in PBS at pH 7.4; type: physicochemical; conditions: read-out: Therm_solubility
[7] = biological target: 5-hydroxytryptamine receptor 2B (Homo sapiens, UniProt P41595); experiment: Binding affinity to 5-HT2B receptor (unknown origin) assessed as displacement of radioligand at 10 uM by radioligand binding assay
[8] = biological target: T1, Adenylate cyclase type 8; experiment: Inhibition of Ca2+/ CAM stimulated human AC8 expressed in AC3 and AC6-knockout HEK293 cells assessed as A23187 stimulated cAMP accumulation at 10 uM incubated for 30 mins followed by […] in presence of IBMX for 1 hr by HTRF assay relative to control; type: cell-based; conditions: time 90.0 min
[9] = tested on: HEK293; experiment: Cytotoxicity against HEK293 cells assessed as reduction in cell viability at 30 uM incubated for 1 hr by cell titer glo assay; type: toxicity, cell-based; conditions: human, hek293, 1 h
[10] = biological target: Voltage-gated inwardly rectifying potassium channel KCNH2 (Homo sapiens, UniProt Q12809); experiment: Displacement of [3H]astemizole from human ERG expressed in HEK293 cell membrane at 10 uM by Radiometric displacement assay relative to control; type: toxicity, cell membranes; conditions: hek293, 10 µM
[11] = Metabolic stability in human liver microsomes assessed as compound remaining after 45 mins; type: ADME, Microsome; conditions: 0.75 h
[12] = Metabolic stability in human liver microsomes assessed as compound remaining after 15 mins; type: ADME, Microsome; conditions: 0.25 h
[13] = Apparent permeability in MDCK-II cells; type: ADME, cell-based, Canis lupus familiaris; conditions: dog
[14] = biological target: T2, CYP1A2 (Homo sapiens, UniProt P05177); experiment: Inhibition of CYP1A2 (unknown origin) at 10 uM relative to control; type: ADME
T2 sequence (P05177 whole entry): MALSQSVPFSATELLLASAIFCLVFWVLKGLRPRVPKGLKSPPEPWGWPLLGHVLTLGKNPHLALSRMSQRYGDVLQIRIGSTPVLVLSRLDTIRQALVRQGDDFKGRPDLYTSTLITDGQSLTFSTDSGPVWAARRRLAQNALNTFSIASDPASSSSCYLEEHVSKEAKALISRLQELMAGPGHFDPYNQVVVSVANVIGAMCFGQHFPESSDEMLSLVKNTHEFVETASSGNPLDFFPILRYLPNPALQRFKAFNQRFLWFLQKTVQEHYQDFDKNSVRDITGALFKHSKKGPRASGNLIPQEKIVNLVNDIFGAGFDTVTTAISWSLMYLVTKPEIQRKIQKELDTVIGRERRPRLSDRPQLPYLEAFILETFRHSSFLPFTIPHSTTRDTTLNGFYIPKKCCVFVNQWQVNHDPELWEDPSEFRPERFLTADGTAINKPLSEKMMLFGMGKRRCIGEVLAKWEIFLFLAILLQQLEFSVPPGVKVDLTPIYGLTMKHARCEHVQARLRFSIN

[15] = biological target: CYP2D6 (Homo sapiens, UniProt P10635); experiment: Inhibition of CYP2D6 (unknown origin) at 10 uM relative to control; type: ADME
[16] = biological target: CYP3A4 (Homo sapiens, UniProt P08684); experiment: Inhibition of CYP3A4 (unknown origin) at 10 uM relative to control; type: ADME
[17] = Metabolic stability in human liver microsomes assessed as compound remaining after 30 mins; type: ADME, Microsome; conditions: 0.5 h
[18] = Intrinsic clearance in human liver microsomes; type: ADME, Microsome
[19] = Half life in human liver microsomes; type: ADME, Microsome
[20] = Metabolic stability in human liver microsomes assessed as compound remaining after 60 mins; type: ADME, Microsome; conditions: 1 h
[21] = biological target: CYP2C19 (Homo sapiens, UniProt P33261); experiment: Inhibition of CYP2C19 (unknown origin) at 10 uM relative to control; type: ADME
[22] = tested on: Mus musculus; experiment: Antiallodynic activity against CFA-induced C57BL/6N mouse inflammatory pain model assessed as inhibition of inflammatory mechanical allodynia at 5.6 mg/kg, ip measured at 1 hr post treatment by von Frey test; type: functional, organism-based
[23] = biological target: CYP2C9 (Homo sapiens, UniProt P11712); experiment: Inhibition of CYP2C9 (unknown origin) at 10 uM relative to control; type: ADME

Adenylate cyclase type 1, sequence (Q08828 whole entry): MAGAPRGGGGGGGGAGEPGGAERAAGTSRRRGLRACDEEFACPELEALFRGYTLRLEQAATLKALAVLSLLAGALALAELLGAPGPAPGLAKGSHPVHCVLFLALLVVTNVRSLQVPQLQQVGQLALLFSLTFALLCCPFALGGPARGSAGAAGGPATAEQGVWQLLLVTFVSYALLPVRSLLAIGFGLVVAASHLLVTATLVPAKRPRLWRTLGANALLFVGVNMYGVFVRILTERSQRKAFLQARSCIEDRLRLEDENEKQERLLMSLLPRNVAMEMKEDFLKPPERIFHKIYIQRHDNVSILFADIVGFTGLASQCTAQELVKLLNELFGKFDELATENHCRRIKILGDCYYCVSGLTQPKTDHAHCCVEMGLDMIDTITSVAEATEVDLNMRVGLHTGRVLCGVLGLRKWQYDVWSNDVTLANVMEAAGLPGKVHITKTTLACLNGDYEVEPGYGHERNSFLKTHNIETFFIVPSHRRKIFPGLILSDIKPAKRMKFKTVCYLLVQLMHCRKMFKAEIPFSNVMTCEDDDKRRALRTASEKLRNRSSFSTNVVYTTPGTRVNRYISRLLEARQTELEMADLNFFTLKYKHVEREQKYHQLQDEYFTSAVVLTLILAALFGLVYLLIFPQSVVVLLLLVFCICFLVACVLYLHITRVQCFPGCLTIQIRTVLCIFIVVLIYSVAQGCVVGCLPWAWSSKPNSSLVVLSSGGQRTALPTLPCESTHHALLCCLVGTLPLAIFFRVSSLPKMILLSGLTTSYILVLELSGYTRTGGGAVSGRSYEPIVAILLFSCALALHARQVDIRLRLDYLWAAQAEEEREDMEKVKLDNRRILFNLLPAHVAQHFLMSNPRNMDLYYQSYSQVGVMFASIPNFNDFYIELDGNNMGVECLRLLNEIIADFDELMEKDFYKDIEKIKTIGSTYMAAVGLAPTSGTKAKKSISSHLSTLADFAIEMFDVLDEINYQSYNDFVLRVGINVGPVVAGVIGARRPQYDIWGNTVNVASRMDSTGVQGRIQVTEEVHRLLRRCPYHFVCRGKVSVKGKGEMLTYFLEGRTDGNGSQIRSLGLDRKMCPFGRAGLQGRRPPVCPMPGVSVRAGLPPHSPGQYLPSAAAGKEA
T1 sequence (P40145 whole entry): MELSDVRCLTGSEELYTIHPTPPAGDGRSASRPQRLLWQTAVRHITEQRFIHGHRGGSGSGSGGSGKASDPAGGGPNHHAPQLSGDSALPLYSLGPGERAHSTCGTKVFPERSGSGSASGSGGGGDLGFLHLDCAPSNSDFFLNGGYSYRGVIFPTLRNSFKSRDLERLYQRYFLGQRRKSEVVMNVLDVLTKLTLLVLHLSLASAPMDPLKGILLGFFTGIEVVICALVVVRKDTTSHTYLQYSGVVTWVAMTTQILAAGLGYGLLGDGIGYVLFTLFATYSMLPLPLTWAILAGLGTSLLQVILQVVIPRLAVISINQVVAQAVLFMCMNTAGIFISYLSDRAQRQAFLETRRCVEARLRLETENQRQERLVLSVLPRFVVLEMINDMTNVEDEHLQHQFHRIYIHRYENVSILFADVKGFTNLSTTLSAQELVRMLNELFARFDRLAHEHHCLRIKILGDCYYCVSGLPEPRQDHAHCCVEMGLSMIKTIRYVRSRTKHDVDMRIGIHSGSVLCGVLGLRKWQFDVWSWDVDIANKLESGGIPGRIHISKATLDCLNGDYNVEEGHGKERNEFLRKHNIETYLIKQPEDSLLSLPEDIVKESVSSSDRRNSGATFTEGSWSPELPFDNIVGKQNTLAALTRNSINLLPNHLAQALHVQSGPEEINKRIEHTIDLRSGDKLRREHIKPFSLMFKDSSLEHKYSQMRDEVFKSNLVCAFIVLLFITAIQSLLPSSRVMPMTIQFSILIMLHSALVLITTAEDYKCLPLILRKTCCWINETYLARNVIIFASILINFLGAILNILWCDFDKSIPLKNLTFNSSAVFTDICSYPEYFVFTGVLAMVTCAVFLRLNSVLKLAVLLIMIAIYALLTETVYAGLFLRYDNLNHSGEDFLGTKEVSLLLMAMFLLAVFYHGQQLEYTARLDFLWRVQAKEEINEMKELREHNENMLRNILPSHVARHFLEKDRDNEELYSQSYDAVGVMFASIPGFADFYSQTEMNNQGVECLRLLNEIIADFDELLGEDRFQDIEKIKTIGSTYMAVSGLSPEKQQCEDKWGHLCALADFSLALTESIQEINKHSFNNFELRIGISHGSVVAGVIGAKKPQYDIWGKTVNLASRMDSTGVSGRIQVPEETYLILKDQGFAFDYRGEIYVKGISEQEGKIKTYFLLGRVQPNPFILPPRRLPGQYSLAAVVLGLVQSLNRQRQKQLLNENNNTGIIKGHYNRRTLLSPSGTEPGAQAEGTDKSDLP
Insulin receptor (Homo sapiens), sequence (P06213 28-758 limits assumed): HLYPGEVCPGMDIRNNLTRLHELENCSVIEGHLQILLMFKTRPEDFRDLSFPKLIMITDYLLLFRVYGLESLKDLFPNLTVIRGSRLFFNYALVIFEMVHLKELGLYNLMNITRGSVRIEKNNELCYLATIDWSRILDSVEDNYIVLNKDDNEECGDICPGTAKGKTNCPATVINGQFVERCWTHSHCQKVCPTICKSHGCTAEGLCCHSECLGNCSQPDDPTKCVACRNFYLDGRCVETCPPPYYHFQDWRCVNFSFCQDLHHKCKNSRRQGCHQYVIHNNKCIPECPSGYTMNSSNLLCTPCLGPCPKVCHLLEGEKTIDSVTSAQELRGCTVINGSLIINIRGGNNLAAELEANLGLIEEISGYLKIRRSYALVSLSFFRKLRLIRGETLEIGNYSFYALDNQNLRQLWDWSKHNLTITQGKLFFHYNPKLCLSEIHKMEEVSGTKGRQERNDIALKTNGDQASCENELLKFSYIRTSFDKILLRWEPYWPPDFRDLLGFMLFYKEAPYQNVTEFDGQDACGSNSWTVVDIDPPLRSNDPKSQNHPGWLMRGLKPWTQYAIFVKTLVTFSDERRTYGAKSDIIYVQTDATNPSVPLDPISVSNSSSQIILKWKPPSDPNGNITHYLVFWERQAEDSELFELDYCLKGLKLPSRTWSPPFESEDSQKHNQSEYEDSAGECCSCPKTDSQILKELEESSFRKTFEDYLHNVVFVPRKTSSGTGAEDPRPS
Insulin receptor (Homo sapiens), sequence (P06213 763-1382 limits assumed): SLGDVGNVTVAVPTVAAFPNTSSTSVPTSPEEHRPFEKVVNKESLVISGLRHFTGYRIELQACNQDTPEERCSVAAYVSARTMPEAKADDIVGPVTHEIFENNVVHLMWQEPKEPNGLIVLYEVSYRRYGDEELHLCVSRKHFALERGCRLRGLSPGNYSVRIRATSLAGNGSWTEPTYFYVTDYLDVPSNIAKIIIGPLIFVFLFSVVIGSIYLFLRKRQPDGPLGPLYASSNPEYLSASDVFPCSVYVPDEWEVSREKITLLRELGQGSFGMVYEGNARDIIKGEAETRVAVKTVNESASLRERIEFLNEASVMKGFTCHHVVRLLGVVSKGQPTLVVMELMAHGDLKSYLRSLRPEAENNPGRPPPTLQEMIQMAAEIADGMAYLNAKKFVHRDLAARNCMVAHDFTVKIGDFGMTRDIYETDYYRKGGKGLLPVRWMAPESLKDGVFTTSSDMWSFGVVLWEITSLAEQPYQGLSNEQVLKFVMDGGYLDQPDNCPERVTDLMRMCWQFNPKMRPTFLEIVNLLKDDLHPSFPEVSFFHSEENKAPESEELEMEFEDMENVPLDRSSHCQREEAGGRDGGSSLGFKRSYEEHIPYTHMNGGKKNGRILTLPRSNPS
5-hydroxytryptamine receptor 2B, sequence (P41595 whole entry): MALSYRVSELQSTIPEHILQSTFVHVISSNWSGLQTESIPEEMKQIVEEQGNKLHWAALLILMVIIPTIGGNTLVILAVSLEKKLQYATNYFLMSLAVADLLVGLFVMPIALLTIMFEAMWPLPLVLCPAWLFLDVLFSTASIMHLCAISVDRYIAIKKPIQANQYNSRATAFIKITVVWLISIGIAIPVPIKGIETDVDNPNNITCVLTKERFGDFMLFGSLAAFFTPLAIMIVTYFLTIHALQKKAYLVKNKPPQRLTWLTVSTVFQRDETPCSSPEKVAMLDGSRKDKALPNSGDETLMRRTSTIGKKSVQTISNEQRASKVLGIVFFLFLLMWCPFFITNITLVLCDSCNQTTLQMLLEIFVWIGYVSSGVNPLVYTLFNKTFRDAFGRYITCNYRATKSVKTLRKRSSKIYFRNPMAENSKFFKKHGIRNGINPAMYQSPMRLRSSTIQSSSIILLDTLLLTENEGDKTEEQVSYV
CYP2C19, sequence (P33261 whole entry): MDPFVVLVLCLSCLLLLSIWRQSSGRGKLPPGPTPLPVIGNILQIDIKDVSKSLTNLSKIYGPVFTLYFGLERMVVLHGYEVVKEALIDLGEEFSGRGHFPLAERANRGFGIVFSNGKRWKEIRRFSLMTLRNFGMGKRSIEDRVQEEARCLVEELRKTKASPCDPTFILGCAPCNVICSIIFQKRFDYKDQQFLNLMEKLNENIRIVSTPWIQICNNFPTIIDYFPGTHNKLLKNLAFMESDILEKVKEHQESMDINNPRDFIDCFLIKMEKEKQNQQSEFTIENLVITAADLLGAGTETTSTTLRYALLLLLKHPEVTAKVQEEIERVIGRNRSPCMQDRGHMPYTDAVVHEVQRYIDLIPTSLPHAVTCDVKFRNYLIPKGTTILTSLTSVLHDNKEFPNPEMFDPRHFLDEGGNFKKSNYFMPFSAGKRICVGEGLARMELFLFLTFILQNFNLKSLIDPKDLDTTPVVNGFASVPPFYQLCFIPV

For `CN1CC[C@]23c4c5ccc(O)c4O[C@H]2[C@@H](O)C=C[C@H]3[C@H]1C5`, the Activity [1] was “Active”.
In the case of `CCc1cc(=O)[nH]c(-n2nc(C)cc2NC(=O)c2ccc(C)c(C)c2)n1`, the inhibition [2] is reported as 27%, the IC50 [3] is reported as 710 nM and the IC50 [4] is reported as 290 nM. The inhibition [5] was 4%, the solubility thermodynamic [6] was 7.6 µM (≈ 2.67 µg/mL) and the inhibition [7] was 32%. For the same compound, the inhibition [8] was “Active”, the Activity [9] was “Non-Toxic” and the “inhibition (INH)” value [10] was 11%.
`CCc1cc(=O)[nH]c(-n2nc(C)cc2NC(=O)c2cccc(C)c2F)n1` gave an inhibition [2] of 9%, an IC50 [3] of over 60000 nM and an IC50 [4] of 570 nM.
For `CCc1cc(=O)[nH]c(-n2nc(C)cc2NC(=O)c2cccc(Cl)c2)n1`, the inhibition [2] was 48%, the IC50 [3] was 1000 nM and the IC50 [4] was 470 nM.
In the case of `CCc1cc(=O)[nH]c(-n2nc(C)cc2NC(=O)Cc2cccc(C)c2)n1`, the inhibition [2] is reported as 59%, the IC50 [3] is reported as over 60000 nM and the IC50 [4] is reported as 9200 nM.
`CCc1cc(=O)[nH]c(-n2nc(C)cc2NC(=O)c2ccccc2CC)n1` gave an inhibition [2] of 21%, an IC50 [3] of over 60000 nM and an IC50 [4] of 3100 nM.
Compound `CCc1cc(=O)[nH]c(-n2nc(C)cc2NC(=O)c2cccc(C(C)(C)C)c2)n1` has an inhibition [2] of 25%, an IC50 [3] of 380 nM and an IC50 [4] of 880 nM.
Work on `CCc1cc(=O)[nH]c(-n2nc(C)cc2NC(=O)c2cccc(C)c2)n1` yielded an inhibition [2] of 27%, an IC50 [3] of 2700 nM and an IC50 [4] of 410 nM. The solubility thermodynamic [6] was 19.5 µM (≈ 6.58 µg/mL), the Ki [7] was 900 nM and the inhibition [8] was “Active”. For the same compound, the Activity [9] was “Non-Toxic”.
`CCc1cc(=O)[nH]c(-n2nc(C)cc2NC(=O)c2cc(C)ccc2F)n1` gave a Stability [11] of 57.5%, a Stability [12] of 88.3% and a Papp [13] of 2.21 ×10⁻⁶ cm/s. For the same compound, the inhibition at 10 µM [14] was 8.7%, the inhibition at 10 µM [15] was 0.3% and the inhibition at 10 µM [16] was -0.9%. It also gave an inhibition [5] of 64%, a Stability [17] of 67.4% and a CLH [18] of 136.7 µL/min/mg. For the same compound, the t1/2 [19] was 51.2 min, the solubility thermodynamic [6] was 33.6 µM (≈ 11.9 µg/mL) and the Stability [20] was 44.5%. The inhibition at 10 µM [21] was 1.8%, the Activity [22] was “Active” and the inhibition [8] was “Active”. The Activity [9] was “Non-Toxic”, the “inhibition (INH)” value [10] was 6% and the inhibition at 10 µM [23] was -0.2%.
In the case of `CCc1cc(=O)[nH]c(-n2nc(C)cc2NC(=O)c2ccc(O)cc2)n1`, the IC50 [3] is reported as over 60000 nM and the IC50 [4] is reported as over 60000 nM.
Work on `CCc1ccc(C(=O)Nc2cc(C)nn2-c2nc(CC)cc(=O)[nH]2)cc1` yielded an inhibition [2] of 19%, an IC50 [3] of 6600 nM and an IC50 [4] of 390 nM.
Compound `CCc1cc(=O)[nH]c(-n2nc(C)cc2NC(=O)Cc2ccccc2F)n1` has an IC50 [3] of 3400 nM and an IC50 [4] of 16300 nM.
With `CCc1cc(=O)[nH]c(-n2nc(C)cc2NC(=O)c2cccc(SC)c2)n1` the inhibition [2] was 52%, the IC50 [3] was 1300 nM and the IC50 [4] was 630 nM.
With `CCc1cc(=O)[nH]c(-n2nc(C)cc2NC(=O)c2cccc(C3CC3)c2)n1` the inhibition [2] was 17%, the IC50 [3] was 1900 nM and the IC50 [4] was 810 nM.
`CCc1cc(=O)[nH]c(-n2nc(C)cc2NC(=O)c2cccc(Br)c2)n1` gave an inhibition [2] of 15%, an IC50 [3] of 2100 nM and an IC50 [4] of 610 nM.
In the case of `CCc1cc(=O)[nH]c(-n2nc(C)cc2NC(=O)c2ccccc2C)n1`, the inhibition [2] is reported as 11%, the IC50 [3] is reported as 15700 nM and the IC50 [4] is reported as 2200 nM.
With `CCc1cc(=O)[nH]c(-n2nc(C)cc2NC(=O)c2cccc(-c3ccccc3)c2)n1` the inhibition [2] was 37%, the IC50 [3] was 570 nM and the IC50 [4] was 250 nM.
Work on `CCc1cc(=O)[nH]c(-n2nc(C)cc2NC(=O)c2cccc(C(C)C)c2)n1` yielded an inhibition [2] of 28%, an IC50 [3] of 2600 nM and an IC50 [4] of 360 nM.
